Data: patent publication US20170081357A1, “[…] ACTIVE 17-NITROGEN SUBSTITUTED ESTRATREINTHIAZOLE DERIVATIVES AS INHIBITORS OF 17.BETA-HYDROXYSTEROID DEHYDROGENASE” (FORENDO PHARMA LTD, priority 2013, published 2017)

Legend:
[1] = target: T1, recombinant human 17β-HSD1 (Homo sapiens, UniProt P14061); test: Inhibition of recombinant human 17β-HSD1 (conversion of 3H-estrone to estradiol, HPLC); format: biochemical; conditions: inhibitor 1 μM; 30 nM estrone, 1 mM NADPH, 30 min at RT; read-out: 17β-HDS1 Inhibition % at 1 μM
T1 construct: made in house; host or cells: Sd9 (Sf9) insect cells, baculovirus (Bac to Bac Expression System); microsomal fraction
T1 sequence (P14061 1-328): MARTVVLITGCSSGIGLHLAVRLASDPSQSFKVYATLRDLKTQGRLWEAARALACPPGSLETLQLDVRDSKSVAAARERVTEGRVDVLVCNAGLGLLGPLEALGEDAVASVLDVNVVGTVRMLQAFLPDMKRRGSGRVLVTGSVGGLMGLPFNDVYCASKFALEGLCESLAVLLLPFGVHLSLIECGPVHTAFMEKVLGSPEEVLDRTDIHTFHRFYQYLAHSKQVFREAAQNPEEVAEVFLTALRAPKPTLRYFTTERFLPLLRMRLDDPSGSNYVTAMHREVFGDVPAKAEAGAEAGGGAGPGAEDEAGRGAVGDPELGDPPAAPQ
Experimental: 17β-HSD1 production and isolation: Recombinant baculovirus was generated by the “Bac to Bac Expression System” (Invitrogen). Recombinant bacmid was transfected to Sd9 insect cells using “Cellfectin Reagent” (Invitrogen). 60 h later cells were harvested; the microsomal fraction was isolated as described by Puranen, T. J., Poutanen, M. H., Peltoketo, H. E., Vihko, P. T. and Vihko, R. K. (1994) Site-directed mutagenesis of the putative active site of human 17 β-hydroxysteroid dehydrogenase type 1. Biochem. J. 304: 289-293. Aliquots were stored frozen until determination of enzymatic activity.
Assay—Inhibition of recombinant human 17β-HSD1: Recombinant protein (1 μg/ml) was incubated in 20 mM KH2PO4 pH 7.4 with 30 nM estrone (including 800 000 cpm/ml of ^3H-estrone) and 1 mM NADPH for 30 min at RT, in the presence of the potential inhibitor at concentrations 1 μM or 0.1 μM. Inhibitor stock solutions were prepared in DMSO. Final concentration of DMSO was adjusted to 1% in all samples. The enzyme reaction was stopped by addition of 10% trichloroacetic acid (final concentration). Samples were centrifuged in a microtiter plate at 4000 rpm for 10 min. Supernatants were applied to reverse phase HPLC on a Waters Symmetry C18 column, equipped with a Waters Sentry Guard column. Isocratic HPLC runs were performed at RT at a flow rate of 1 ml/min in acetonitrile:water 48:52 as running solvent. Radioactivity was monitored in the eluate by a Packard Flow Scintillation Analyzer. Total radioactivity for estrone and estradiol were determined in each sample and percent conversion of estrone to estradiol was calculated according to the following formula:
(§1) Percent inhibition was calculated flowingly: % inhibition=100−% conversion

[2] = target: T2, recombinant human 17β-HSD2 (Homo sapiens, UniProt P37059); test: Inhibition of recombinant human 17β-HSD2 (conversion of 3H-estradiol to estrone, HPLC); format: biochemical; conditions: inhibitor 1 μM; 50 nM estradiol, 1 mM NADH, 30 min at RT
T2 construct: made in house; host or cells: Sd9 (Sf9) insect cells, baculovirus (Bac to Bac Expression System); fractionated cell extract
T2 sequence (P37059 1-387): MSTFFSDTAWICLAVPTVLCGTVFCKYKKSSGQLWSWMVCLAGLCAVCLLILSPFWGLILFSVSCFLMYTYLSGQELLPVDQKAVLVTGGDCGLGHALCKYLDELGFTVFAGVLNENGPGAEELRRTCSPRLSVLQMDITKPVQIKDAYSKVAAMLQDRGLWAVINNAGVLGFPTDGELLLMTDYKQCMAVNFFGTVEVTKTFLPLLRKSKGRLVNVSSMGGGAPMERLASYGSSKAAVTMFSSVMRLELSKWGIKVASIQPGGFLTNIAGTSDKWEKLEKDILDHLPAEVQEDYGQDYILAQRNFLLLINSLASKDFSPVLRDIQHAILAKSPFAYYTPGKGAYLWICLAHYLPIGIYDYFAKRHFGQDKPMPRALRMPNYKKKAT
Experimental: 17β-HSD2 production and isolation: Similarly to 17β-HSD1 the Recombinant baculovirus was generated by the “Bac to Bac Expression System” (Invitrogen). Recombinant bacmid was transfected to Sd9 insect cells using “Cellfectin Reagent” (Invitrogen). 60 h later cells were harvested and supernatant were fractionated by the following protocol: • cells were dissolved into 40 ml of A-buffer (40 mM TRIS, pH8.0, 20% glycerol, 20 μM NAD, 0.4 mM PMSF, 150 mM NaCl, 0.5% dodecyl-β-maltoside+protease inhibitor cocktail) • cells were sonicated • lysate was incubated on ice for 15 min • lysate was centrifuged 5000 rpm 15 min, +4° C. • centrifugation of the supernatant 180 000 g 30 min, +4° C. • pellet was dissolved into 8 ml of A-buffer • not resuspended material was removed by centrifugation 5000 rpm 15 min, +4° C. • the clear supernatant was divided into 100 μl aliquots and were stored frozen until determination of enzymatic activity.
The amount of 17β-HSD2 was analysed by immunoblotting and total protein concentration of each extract batch was determined.
Assay—Inhibition of recombinant human 17β-HSD2: Recombinant protein (4 μg/ml) was incubated in 20 mM KH2PO4 pH 8.5 with 50 nM estradiol (including 800 000 cpm/ml of ^3H-estradiol) and 1 mM NADH for 30 min at RT, in the presence of the potential inhibitor at concentrations 1 μM or 0.1 μM. Inhibitor stock solutions were prepared in DMSO. Final concentration of DMSO was adjusted to 1% in all samples. The enzyme reaction was stopped by addition of 10% trichloroacetic acid (final concentration). Samples were centrifuged in a microtiter plate at 4000 rpm for 10 min. Supernatants were applied to reverse phase HPLC on a Waters Symmetry C18 column, equipped with a Waters Sentry Guard column. Isocratic HPLC runs were performed at RT at a flow rate of 1 ml/min in acetonitrile:water 48:52 as running solvent. Radioactivity was monitored in the eluate by a Packard Flow Scintillation Analyzer. Total radioactivity for estrone and estradiol were determined in each sample and percent conversion of estradiol to estrone was calculated according to the following formula:
as §1

[3] = Metabolic stability assay, human liver microsome and homogenate incubations; format: in vitro ADME; conditions: human liver homogenate or microsomes, LC/PDA/TOF-MS
Experimental: The in vitro metabolic stability of the compounds of the invention was determined for exemplified compounds using human liver microsome and homogenate incubations. The incubation time points used with or without appropriate cofactors were 0 min and 60 min. Samples were collected at both time points and substrates were detected using LC/PDA/TOF-MS. In vitro metabolic stability (% remaining after 60 min in human liver homogenate or microsomes) of the compounds were calculated and the results are summarized in Table 3.

Compound	inhibition at 1 µM [1] [%]	inhibition at 1 µM [2] [%]	In vitro metabolic stability, % remaining after 60 min [3] [%]
COc1ccc2c(c1)CCC1C2CC[C@]2(C)c3n[nH]cc3[C@@H](CCC(=O)Nc3ncc(C)s3)C12 (stereo partly drawn) [Compound 50, 3-((6aS,10S)-2-Methoxy-6a-methyl-4b,5,6,6a,8,10,10a,10b,11,12-decehydro-7,8-diaza-pentaleno[2,1-1]phenanthren-10-yl}-N-(5-methylthiazol-2-yl)propanamide]	78	0	88
Cc1cnc(NC(=O)CC[C@@H]2c3c[nH]nc3[C@@]3(C)CCC4c5ccc(O)cc5CCC4C23)s1 (stereo partly drawn) [Compound 51, 3-((6aS,10S)-2-Hydroxy-6a-methyl-4b,5,6,6a,8,10,10a,10b,11,12-decehydro-7,8-diaza-pentaleno[2,1-1]phenanthren-10-yl}-N-(5-methylthiazol-2-yl)propanamide]	82	15	46
Cc1cnc(NC(=O)CC[C@@H]2c3c[nH]nc3[C@@]3(C)CCC4c5cc(C(C)(C)C)c(O)cc5CCC4C23)s1 (stereo partly drawn) [Compound 53, 3-((6aS,10S)-3-tert-Butyl-2-hydroxy-6a-methyl-4b,5,6,6a,8,10,10a,10b,11,12-decehydro-7,8-diaza-pentaleno[2,1-1]phenanthren-10-yl}-N-(5-methylthiazol-2-yl)propanamide]	76	13	100
Cc1cnc(NC(=O)CC[C@@H]2c3c[nH]nc3[C@@]3(C)CCC4c5cc([N+](=O)[O-])c(O)cc5CCC4C23)s1 (stereo partly drawn) [Compound 55, 3-((6aS,10S)-2-Hydroxy-6a-methyl-2-nitro-4b,5,6,6a,8,10,10a,10b,11,12-decehydro-7,8-diaza-pentaleno[2,1-1]phenanthren-10-yl}-N-(5-methylthiazol-2-yl)propanamide]	69	7	86
Cc1cnc(NC(=O)CC[C@@H]2C/C(=N\O)[C@@]3(C)CCC4c5ccccc5CCC4C23)s1 (stereo partly drawn) [Compound 59, 3-{(13S,15R)-17-[(E)-hydroxyimino]-13-methyl-7,8,9,11,12,13,14,15,16,17-decahydro-6H-cyclopenta[a]phenanthren-15-yl}-N-(5-methylthiazol-2-yl)propanamide]	93	2	100
Cc1cnc(NC(=O)CC[C@@H]2C/C(=N\O)[C@@]3(C)CCC4c5cc(Br)c(O)c(Br)c5CCC4C23)s1 (stereo partly drawn) [Compound 64, 3-{(13S,15R)-2,4-Dibromo-3-hydroxy-17-[(E)-hydroxyimino]-13-methyl-7,8,9,11,12,13,14,15,16,17-decahydro-6H-cyclopenta[a]phenanthren-15-yl}-N-(5-methylthiazol-2-yl)propanamide]	–	–	95
Cc1cnc(NC(=O)CC[C@@H]2C(=C\O)/C(=N\O)[C@@]3(C)CCC4c5cc(Br)c(O)c(Br)c5CCC4C23)s1 (stereo partly drawn) [Compound 70, 3-{(13S,15S)-2,4-Dibromo-3-hydroxy-17-[(Z)-hydroxyimino]-16-[1-hydroxy-meth-(E)-ylidene]-13-methyl-7,8,9,11,12,13,14,15,16,17-decahydro-6H-cyclopenta[a]phenanthren-15-yl}-N-(5-methylthiazol-2-yl)propanamide]	94	8	97
CO/N=C1\C[C@@H](CCC(=O)Nc2ncc(C)s2)C2C3CCc4cc(O)ccc4C3CC[C@]12C (stereo partly drawn) [Compound 73, 3-{(13S,15R)-3-Hydroxy-17-[(E)-methoxyimino]-13-methyl-7,8,9,11,12,13,14,15,16,17-decahydro-6H-cyclopenta[a]phenanthren-15-yl}-N-(5-methylthiazol-2-yl)propanamide]	–	–	73
CO/N=C1\C[C@@H](CCC(=O)Nc2ncc(C)s2)C2C3CCc4cc(O)c(C(C)(C)C)cc4C3CC[C@]12C (stereo partly drawn) [Compound 76, 3-{(13S,15R)-2-tert-Butyl-3-hydroxy-17-[(E)-methoxyimino]-13-methyl-7,8,9,11,12,13,14,15,16,17-decahydro-6H-cyclopenta[a]phenanthren-15-yl}-N-(5-methylthiazol-2-yl)propanamide]	–	–	100
CO/N=C1\C[C@@H](CCC(=O)Nc2ncc(C)s2)C2C3CCc4cc(O)c(Br)cc4C3CC[C@]12C (stereo partly drawn) [Compound 85, 3-{(13S,15R)-2-Bromo-3-hydroxy-17-[(E)-methoxyimino]-13-methyl-7,8,9,11,12,13,14,15,16,17-decahydro-6H-cyclopenta[a]phenanthren-15-yl}-N-(5-methylthiazol-2-yl)-propanamide]	–	–	34
CO/N=C1\C[C@@H](CCC(=O)Nc2ncc(C)s2)C2C3CCc4cc(O)c(Cl)cc4C3CC[C@]12C (stereo partly drawn) [Compound 88, 3-{(13S,15R)-2-Chloro-3-hydroxy-17-[(E)-methoxyimino]-13-methyl-7,8,9,11,12,13,14,15,16,17-decahydro-6H-cyclopenta[a]phenanthren-15-yl}-N-(5-methylthiazol-2-yl)propanamide]	–	–	94
CO/N=C1\C[C@@H](CCC(=O)Nc2ncc(C)s2)C2C3CCc4cc(O)c(F)cc4C3CC[C@]12C (stereo partly drawn) [Compound 91, 3-{(13S,15R)-2-Fluoro-3-hydroxy-17-[(E)-methoxyimino]-13-methyl-7,8,9,11,12,13,14,15,16,17-decahydro-6H-cyclopenta[a]phenanthren-15-yl}-N-(5-methylthiazol-2-yl)propanamide]	94	5	92
